pIC50: −log10 of the molar value.
Key:
[1] = Cytotoxicity against human SF268 cells assessed as growth inhibition after 48 hrs by SRB assay; assay type: functional; conditions: SF-268, 48 h
[2] = Cytotoxicity against human A498 cells assessed as growth inhibition after 48 hrs by SRB assay; assay type: functional; conditions: A498, 48 h
[3] = Cytotoxicity against human OVCAR5 cells assessed as growth inhibition after 48 hrs by SRB assay; assay type: functional; conditions: OVCAR-5, 48 h
[4] = Cytotoxicity against human Hs 578T cells assessed as growth inhibition at 10 uM after 48 hrs by SRB assay relative to control; assay type: functional; conditions: read-out: GI
[5] = Cytotoxicity against human UACC257 cells assessed as growth inhibition at 10 uM after 48 hrs by SRB assay relative to control; assay type: functional; conditions: UACC-257, 48 h, read-out: GI
[6] = Cytotoxicity against human A498 cells assessed as growth inhibition at 10 uM after 48 hrs by SRB assay relative to control; assay type: functional; conditions: A498, 48 h, read-out: GI
[7] = Cytotoxicity against human SF539 cells assessed as growth inhibition after 48 hrs by SRB assay; assay type: functional; conditions: SF-539, 48 h
[8] = Cytotoxicity against human HCT116 cells assessed as growth inhibition after 48 hrs by SRB assay; assay type: functional; conditions: HCT-116, 48 h
[9] = Cytotoxicity against human MOLT4 cells assessed as growth inhibition at 10 uM after 48 hrs by SRB assay relative to control; assay type: functional; conditions: MOLT-4, 48 h, read-out: GI
[10] = Cytotoxicity against human SK-MEL-2 cells assessed as growth inhibition at 10 uM after 48 hrs by SRB assay relative to control; assay type: functional; conditions: SK-MEL-2, 48 h, read-out: GI
[11] = Cytotoxicity against human NCI-H460 cells assessed as growth inhibition at 10 uM after 48 hrs by SRB assay relative to control; assay type: functional; conditions: NCI-H460, 48 h, read-out: GI
[12] = Cytotoxicity against human OVCAR4 cells assessed as growth inhibition after 48 hrs by SRB assay; assay type: functional; conditions: OVCAR-4, 48 h
[13] = Cytotoxicity against human EKVX cells assessed as growth inhibition at 10 uM after 48 hrs by SRB assay relative to control; assay type: functional; conditions: read-out: GI
[14] = Cytotoxicity against human SNB19 cells assessed as growth inhibition at 10 uM after 48 hrs by SRB assay relative to control; assay type: functional; conditions: SNB-19, 48 h, read-out: GI
[15] = Cytotoxicity against human SF539 cells assessed as growth inhibition at 10 uM after 48 hrs by SRB assay relative to control; assay type: functional; conditions: SF-539, 48 h, read-out: GI
[16] = Cytotoxicity against human NCI-H23 cells assessed as growth inhibition after 48 hrs by SRB assay; assay type: functional; conditions: NCI-H23, 48 h
[17] = Cytotoxicity against human NCI-ADR-RES cells assessed as growth inhibition after 48 hrs by SRB assay; assay type: functional
[18] = Inhibition of sheep brain tubulin polymerization by DAPI staining-based fluorimetric method; set-up: species or system Ovis aries
[19] = Cytotoxicity against human RXF393 cells assessed as growth inhibition at 10 uM after 48 hrs by SRB assay relative to control; assay type: functional; conditions: RXF 393, 48 h, read-out: GI
[20] = Cytotoxicity against human OVCAR3 cells assessed as growth inhibition after 48 hrs by SRB assay; assay type: functional; conditions: OVCAR-3, 48 h
[21] = Cytotoxicity against human SK-MEL-28 cells assessed as growth inhibition at 10 uM after 48 hrs by SRB assay relative to control; assay type: functional; conditions: SK-MEL-28, 48 h, read-out: GI
[22] = Cytotoxicity against human K562 cells assessed as growth inhibition at 10 uM after 48 hrs by SRB assay relative to control; assay type: functional; conditions: K562, 48 h, read-out: GI
[23] = Cytotoxicity against human PC3 cells assessed as growth inhibition after 48 hrs by SRB assay; assay type: functional; conditions: PC-3, 48 h
[24] = Cytotoxicity against human SNB75 cells assessed as growth inhibition at 10 uM after 48 hrs by SRB assay relative to control; assay type: functional; conditions: SNB-75, 48 h, read-out: GI
[25] = Cytotoxicity against human SKOV3 cells assessed as growth inhibition after 48 hrs by SRB assay; assay type: functional; conditions: SK-OV-3, 48 h
[26] = Cytotoxicity against human OVCAR4 cells assessed as growth inhibition at 10 uM after 48 hrs by SRB assay relative to control; assay type: functional; conditions: OVCAR-4, 48 h, read-out: GI
[27] = Cytotoxicity against human A549 cells assessed as growth inhibition at 10 uM after 48 hrs by SRB assay relative to control; assay type: functional; conditions: A549, 48 h, read-out: GI
Ovis aries = species on record: Ovis aries; assay: Inhibition of sheep brain tubulin polymerization at 100 uM by DAPI staining-based fluorimetric method relative to control
[28] = Cytotoxicity against human UO31 cells assessed as growth inhibition after 48 hrs by SRB assay; assay type: functional; conditions: UO-31, 48 h
[29] = Cytotoxicity against human SNB75 cells assessed as growth inhibition after 48 hrs by SRB assay; assay type: functional; conditions: SNB-75, 48 h
[30] = Cytotoxicity against human SK-MEL-5 cells assessed as growth inhibition after 48 hrs by SRB assay; assay type: functional; conditions: SK-MEL-5, 48 h
[31] = Cytotoxicity against human HOP62 cells assessed as growth inhibition after 48 hrs by SRB assay; assay type: functional; conditions: HOP-62, 48 h
[32] = Cytotoxicity against human DU145 cells assessed as growth inhibition after 48 hrs by SRB assay; assay type: functional; conditions: DU-145, 48 h
[33] = Cytotoxicity against human MDA-MB-435 cells assessed as growth inhibition at 10 uM after 48 hrs by SRB assay relative to control; assay type: functional; conditions: MDA-MB-435, 48 h, read-out: GI
[34] = Cytotoxicity against human HOP62 cells assessed as growth inhibition at 10 uM after 48 hrs by SRB assay relative to control; assay type: functional; conditions: HOP-62, 48 h, read-out: GI
[35] = Cytotoxicity against human 786-0 cells assessed as growth inhibition after 48 hrs by SRB assay; assay type: functional; conditions: 786-0, 48 h
[36] = Cytotoxicity against human UACC62 cells assessed as growth inhibition after 48 hrs by SRB assay; assay type: functional; conditions: UACC-62, 48 h
[37] = Cytotoxicity against human HOP92 cells assessed as growth inhibition after 48 hrs by SRB assay; assay type: functional; conditions: HOP-92, 48 h
[38] = Cytotoxicity against human HT-29 cells assessed as growth inhibition after 48 hrs by SRB assay; assay type: functional; conditions: HT-29, 48 h
[39] = Cytotoxicity against human OVCAR3 cells assessed as growth inhibition at 10 uM after 48 hrs by SRB assay relative to control; assay type: functional; conditions: OVCAR-3, 48 h, read-out: GI
[40] = Cytotoxicity against human U251 cells assessed as growth inhibition after 48 hrs by SRB assay; assay type: functional; conditions: U-251, 48 h
[41] = Cytotoxicity against human SN12C cells assessed as growth inhibition after 48 hrs by SRB assay; assay type: functional
[42] = Cytotoxicity against human OVCAR8 cells assessed as growth inhibition at 10 uM after 48 hrs by SRB assay relative to control; assay type: functional; conditions: OVCAR-8, 48 h, read-out: GI

`COc1ccc(CN2c3ccccc3CCc3ccccc32)cc1F` gave a GI50 [1] of 660 nM, a GI50 [2] of 339 nM and a GI50 [3] of 1900 nM. The inhibition of growth at 10 µM [4] was 70%, the inhibition of growth at 10 µM [5] was 38% and the inhibition of growth at 10 µM [6] was 100%. It also gave a GI50 [7] of 287 nM, a GI50 [8] of 413 nM and an inhibition of growth at 10 µM [9] of 84%. For the same molecule, the inhibition of growth at 10 µM [10] was 73%, the inhibition of growth at 10 µM [11] was 93% and the GI50 [12] was 868 nM. The inhibition of growth at 10 µM [13] was 59%, the inhibition of growth at 10 µM [14] was 61% and the inhibition of growth at 10 µM [15] was 100%. For the same molecule, the GI50 [16] was 672 nM, the GI50 [17] was 456 nM and the pIC50 [18] was 5.19. For the same molecule, the inhibition of growth at 10 µM [19] was 82%, the GI50 [20] was 285 nM and the inhibition of growth at 10 µM [21] was 49%. The inhibition of growth at 10 µM [22] was 94%, the GI50 [23] was 489 nM and the inhibition of growth at 10 µM [24] was 77%. The GI50 [25] was 471 nM, the inhibition of growth at 10 µM [26] was 58% and the inhibition of growth at 10 µM [27] was 79%. It also gave an inhibition (Ovis aries) of 58%, a GI50 [28] of 814 nM and a GI50 [29] of 277 nM. It also gave a GI50 [30] of 522 nM, a GI50 [31] of 529 nM and a GI50 [32] of 481 nM. The inhibition of growth at 10 µM [33] was 100%, the inhibition of growth at 10 µM [34] was 63% and the GI50 [35] was 572 nM. For the same molecule, the GI50 [36] was 804 nM, the GI50 [37] was 587 nM and the GI50 [38] was 319 nM. It also gave an inhibition of growth at 10 µM [39] of 100%, a GI50 [40] of 496 nM and a GI50 [41] of 1950 nM.
For `COc1ccc(CN2c3ccccc3Sc3ccccc32)cc1F`, the GI50 [1] was 1430 nM, the GI50 [2] was 283 nM and the inhibition of growth at 10 µM [4] was 83%. It also gave an inhibition of growth at 10 µM [5] of 45%, an inhibition of growth at 10 µM [6] of 100% and a GI50 [7] of 330 nM. It also gave a GI50 [8] of 377 nM, an inhibition of growth at 10 µM [9] of 73% and an inhibition of growth at 10 µM [10] of 60%. The inhibition of growth at 10 µM [11] was 95%, the GI50 [12] was 7250 nM and the inhibition of growth at 10 µM [13] was 66%. For the same molecule, the inhibition of growth at 10 µM [14] was 65%, the inhibition of growth at 10 µM [15] was 100% and the GI50 [16] was 764 nM. It also gave a GI50 [17] of 326 nM, an inhibition of growth at 10 µM [42] of 76% and a pIC50 [18] of 4.68. It also gave an inhibition of growth at 10 µM [19] of 83%, a GI50 [20] of 264 nM and an inhibition of growth at 10 µM [21] of 43%. It also gave an inhibition of growth at 10 µM [22] of 89%, a GI50 [23] of 485 nM and an inhibition of growth at 10 µM [24] of 55%. It also gave a GI50 [25] of 475 nM, an inhibition of growth at 10 µM [26] of 51% and an inhibition of growth at 10 µM [27] of 78%. It also gave an inhibition (Ovis aries) of 63%, a GI50 [28] of 916 nM and a GI50 [29] of 204 nM. For the same molecule, the GI50 [30] was 488 nM, the GI50 [31] was 506 nM and the GI50 [32] was 438 nM. It also gave an inhibition of growth at 10 µM [33] of 100%, an inhibition of growth at 10 µM [34] of 80% and a GI50 [35] of 579 nM. It also gave a GI50 [36] of 499 nM, a GI50 [37] of 806 nM and a GI50 [38] of 331 nM. The inhibition of growth at 10 µM [39] was 100%, the GI50 [40] was 529 nM and the GI50 [41] was 575 nM.

From ChEMBL document CHEMBL3862012, “Methylene versus carbonyl bridge in the structure of new tubulin polymerization inhibitors with tricyclic A-rings” (Bioorg Med Chem, 2016)
